Numbered stars: 1 amine (or outer) side, 2 acyl side, 3 side chain; on linkers, the order of the positions; unused ones are H or OH. Bridge positions count the residues as written; N and C are the ends. Square brackets hold non-standard residues; d marks the D form. Side chains are listed from the residue outwards. Peptide text beside a SMILES is read from it. * marks the point of attachment. C20 diacid = O=C(O)CCCCCCCCCCCCCCCCCCC(=O)*; C18 diacid = O=C(O)CCCCCCCCCCCCCCCCC(=O)*; γGlu = O=C(O)[C@H](CCC(=O)[*:2])N[*:1]; Hyp = O=C(O)[C@@H]1C[C@@H](O)CN1; Dab = NCC[C@H](N)C(=O)O; Dap = NC[C@H](N)C(=O)O; AEEA = NCCOCCOCC(=O)O

This note sets out measurements from patent publication US20260166128A1, “HUMAN AMYLIN ANALOG, AND DERIVATIVE THEREOF AND USE THEREOF” (priority 2022, published 2026).

Series [1] can be described thus: Freeze-thaw stability of derivatives (freeze-thaw yield by liquid chromatography). Particulars: for Dissolution property: appearance after dissolution at 0.2 mg/ml in 20 mM phosphate buffer solution (PB) (pH 7.0); for Freeze storage property: appearance after overnight storage at −20° C. and thawing to room temperature, 0.2 mg/ml in 20 mM PB (pH 7.0); for Freeze storage yield: concentration of polypeptide after freezing and thawing / concentration before, by liquid chromatography, −20° C. overnight. The format is physicochemical. The procedure, abridged:
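Lyophilised peptide derivative dissolved at 0.2 mg/ml in 20 mM phosphate buffer, pH 7.0, frozen overnight at −20° C, then thawed at room temperature. Peptide concentration before and after freeze-thaw measured by reversed-phase HPLC on centrifuged supernatant; yield = post-thaw/pre-thaw concentration.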

A further series deals with T1, human amylin receptor (Homo sapiens, UniProt O60896+P30988).
T1 construct: host or cells: CHO-K1/Ga15/AMY3 cells, further stably transfected with a CRE-luciferase plasmid
T1 sequence (P30988 25-474): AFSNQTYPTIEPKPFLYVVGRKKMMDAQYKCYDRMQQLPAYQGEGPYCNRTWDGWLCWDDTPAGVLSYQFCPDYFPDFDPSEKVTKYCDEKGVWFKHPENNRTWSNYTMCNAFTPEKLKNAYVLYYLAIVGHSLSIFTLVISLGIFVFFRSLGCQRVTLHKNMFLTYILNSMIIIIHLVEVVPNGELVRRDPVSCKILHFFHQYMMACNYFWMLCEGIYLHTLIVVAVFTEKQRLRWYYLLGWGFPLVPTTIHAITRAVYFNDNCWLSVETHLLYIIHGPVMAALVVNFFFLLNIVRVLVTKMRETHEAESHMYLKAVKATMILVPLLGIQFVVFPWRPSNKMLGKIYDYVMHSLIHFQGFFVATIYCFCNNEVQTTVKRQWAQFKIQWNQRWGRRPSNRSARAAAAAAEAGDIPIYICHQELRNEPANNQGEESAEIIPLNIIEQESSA
T1 sequence (O60896 24-148 partner): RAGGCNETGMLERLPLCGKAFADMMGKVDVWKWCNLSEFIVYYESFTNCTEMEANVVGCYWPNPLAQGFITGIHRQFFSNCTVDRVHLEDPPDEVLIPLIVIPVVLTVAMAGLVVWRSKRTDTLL
Kind of series: Luciferase assay of amylin derivatives in amylin receptor/CRE-luc CHO cell line. Format: cell-based. The conditions noted are these: CHO-K1/Ga15/AMY3 CRE-luc cells, 24 hours incubation, F12 medium containing 10% FBS; read-out: EC50.

Experimental for human amylin receptor: The experiment was intended to detect the activity or efficacy of the amylin derivatives on a human amylin receptor in vitro by luciferase assay.
50 μL of growth medium (F12 medium containing 10% FBS) was added into each well of a white 96-well plate, and the stably transfected amylin/CRE-lue CHO cells were inoculated into the white 96-well plate at a density of about 20,000 cells/well for activity determination.

In general, EC50 refers to the concentration that produces a half-maximal response. `CC[C@H](C)[C@H](NC(=O)[C@@H]1CCCN1C(=O)[C@H](CCCCNC(=O)COCCOCCNC(=O)CC[C@H](NC(=O)CCCCCCCCCCCCCCCCC(=O)O)C(=O)O)NC(=O)[C@H](CC(C)C)NC(=O)[C@H](CC(N)=O)NC(=O)[C@H](CC(N)=O)NC(=O)[C@H](CO)NC(=O)[C@H](CO)NC(=O)[C@H](Cc1c[nH]cn1)NC(=O)[C@H](CCCNC(=N)N)NC(=O)[C@H](CC(C)C)NC(=O)[C@H](Cc1ccccc1)NC(=O)[C@H](CC(=O)O)NC(=O)[C@H](C)NC(=O)[C@H](CC(C)C)NC(=O)[C@H](CCCNC(=N)N)NC(=O)[C@H](CCC(N)=O)NC(=O)[C@@H](NC(=O)[C@H](C)NC(=O)[C@@H]1CSSC[C@H](NC(=O)[C@@H](N)CCCNC(=N)N)C(=O)N[C@@H](CC(N)=O)C(=O)N[C@@H]([C@@H](C)O)C(=O)N[C@@H](C)C(=O)N[C@@H]([C@@H](C)O)C(=O)N1)[C@@H](C)O)C(=O)N[C@@H](CC(C)C)C(=O)N1CCC[C@H]1C(=O)N1CCC[C@H]1C(=O)N[C@H](C(=O)N[C@@H](CC(N)=O)C(=O)N[C@H](C(=O)NCC(=O)N[C@@H](CO)C(=O)N[C@@H](CC(N)=O)C(=O)N[C@H](C(=O)N1C[C@H](O)C[C@H]1C(N)=O)[C@@H](C)O)C(C)C)[C@@H](C)O` [PD108] (H-RCNTATCATQRLADFLRHSSNNLK([AEEA-γGlu-C18 diacid])PILPPTNVGSNT[Hyp]-NH2; disulfide 2-7 (inferred); N-terminus assumed): in series [1], the Dissolution property entry is “Clear”, the Freeze storage property result is on record as “Clear” and the Freeze storage yield is reported as 96.86%. Further, the concentration giving a half-maximal response (EC50) on human amylin receptor is 0.028 nM.
In the case of `CC[C@H](C)[C@H](NC(=O)[C@@H]1CCCN1C(=O)[C@H](CCCCNC(=O)CC[C@H](NC(=O)CCCCCCCCCCCCCCCCCCC(=O)O)C(=O)O)NC(=O)[C@H](CC(C)C)NC(=O)[C@H](CC(N)=O)NC(=O)[C@H](CC(N)=O)NC(=O)[C@H](CO)NC(=O)[C@H](CO)NC(=O)[C@H](Cc1c[nH]cn1)NC(=O)[C@H](CCCNC(=N)N)NC(=O)[C@H](CC(C)C)NC(=O)[C@H](Cc1ccccc1)NC(=O)[C@H](CN)NC(=O)[C@H](C)NC(=O)[C@H](CC(C)C)NC(=O)[C@H](CCCNC(=N)N)NC(=O)[C@H](CCC(N)=O)NC(=O)[C@@H](NC(=O)[C@H](C)NC(=O)[C@@H]1CSSC[C@H](NC(=O)[C@@H](N)CCCNC(=N)N)C(=O)N[C@@H](CC(N)=O)C(=O)N[C@@H]([C@@H](C)O)C(=O)N[C@@H](C)C(=O)N[C@@H]([C@@H](C)O)C(=O)N1)[C@@H](C)O)C(=O)N[C@@H](CC(C)C)C(=O)N1CCC[C@H]1C(=O)N1CCC[C@H]1C(=O)N[C@H](C(=O)N[C@@H](CC(N)=O)C(=O)N[C@H](C(=O)NCC(=O)N[C@@H](CO)C(=O)N[C@@H](CC(N)=O)C(=O)N[C@H](C(=O)N1CCC[C@H]1C(N)=O)[C@@H](C)O)C(C)C)[C@@H](C)O` [PD045] (H-RCNTATCATQRLA[Dap]FLRHSSNNLK([γGlu-C20 diacid])PILPPTNVGSNTP-NH2; disulfide 2-7 (inferred); N-terminus assumed), in series [1], the Dissolution property entry is given as “Clear”, the Freeze storage property entry is on record as “Clear” and the Freeze storage yield came to 95.59%. For the same compound, the half-maximal effective concentration (EC50) at human amylin receptor worked out at 0.364 nM.
On to `CC[C@H](C)[C@H](NC(=O)[C@@H]1CCCN1C(=O)[C@H](CCCCNC(=O)CC[C@H](NC(=O)CCCCCCCCCCCCCCCCCCC(=O)O)C(=O)O)NC(=O)[C@H](CC(C)C)NC(=O)[C@H](CC(N)=O)NC(=O)[C@H](CC(N)=O)NC(=O)[C@H](CO)NC(=O)[C@H](CO)NC(=O)[C@H](Cc1c[nH]cn1)NC(=O)[C@H](CCCNC(=N)N)NC(=O)[C@H](CC(C)C)NC(=O)[C@H](Cc1ccccc1)NC(=O)[C@H](CCC(=O)O)NC(=O)[C@H](C)NC(=O)[C@H](CC(C)C)NC(=O)[C@H](CCCNC(=N)N)NC(=O)[C@H](CCC(N)=O)NC(=O)[C@@H](NC(=O)[C@H](C)NC(=O)[C@@H]1CSSC[C@H](NC(=O)[C@@H](N)CCCNC(=N)N)C(=O)N[C@@H](CC(N)=O)C(=O)N[C@@H]([C@@H](C)O)C(=O)N[C@@H](C)C(=O)N[C@@H]([C@@H](C)O)C(=O)N1)[C@@H](C)O)C(=O)N[C@@H](CC(C)C)C(=O)N1CCC[C@H]1C(=O)N1CCC[C@H]1C(=O)N[C@H](C(=O)N[C@@H](CC(N)=O)C(=O)N[C@H](C(=O)NCC(=O)N[C@@H](CO)C(=O)N[C@@H](CC(N)=O)C(=O)N[C@H](C(=O)N[C@@H](Cc1ccc(O)cc1)C(N)=O)[C@@H](C)O)C(C)C)[C@@H](C)O` [PD017] (H-RCNTATCATQRLAEFLRHSSNNLK([γGlu-C20 diacid])PILPPTNVGSNTY-NH2; disulfide 2-7 (inferred); N-terminus assumed), for which, in series [1], the Dissolution property result is on record as “Clear”, the Freeze storage property entry is recorded as “Muddy” and the Freeze storage yield amounted to 100.81%. For the same compound, at human amylin receptor, the EC50 was 0.772 nM.
In the same order, the values of `CC[C@H](C)[C@H](NC(=O)[C@@H]1CCCN1C(=O)CNC(=O)[C@H](CC(C)C)NC(=O)[C@H](CC(N)=O)NC(=O)[C@H](CC(N)=O)NC(=O)[C@H](CO)NC(=O)[C@H](CO)NC(=O)[C@H](Cc1c[nH]cn1)NC(=O)[C@H](CCCNC(=N)N)NC(=O)[C@H](CC(C)C)NC(=O)[C@H](Cc1ccccc1)NC(=O)[C@H](CC(=O)O)NC(=O)[C@H](C)NC(=O)[C@H](CC(C)C)NC(=O)[C@H](CCCNC(=N)N)NC(=O)[C@H](CCC(N)=O)NC(=O)[C@@H](NC(=O)[C@H](C)NC(=O)[C@@H]1CSSC[C@H](NC(=O)[C@H](CCCCN)NC(=O)COCCOCCNC(=O)CC[C@H](NC(=O)CCCCCCCCCCCCCCCCC(=O)O)C(=O)O)C(=O)N[C@@H](CC(N)=O)C(=O)N[C@@H]([C@@H](C)O)C(=O)N[C@@H](C)C(=O)N[C@@H]([C@@H](C)O)C(=O)N1)[C@@H](C)O)C(=O)N[C@@H](CC(C)C)C(=O)N1CCC[C@H]1C(=O)N1CCC[C@H]1C(=O)N[C@H](C(=O)N[C@@H](CC(N)=O)C(=O)N[C@H](C(=O)NCC(=O)N[C@@H](CO)C(=O)N[C@@H](CC(N)=O)C(=O)N[C@H](C(=O)N1C[C@H](O)C[C@H]1C(N)=O)[C@@H](C)O)C(C)C)[C@@H](C)O` [PD125] ({C18 diacid-γGlu-AEEA}-KCNTATCATQRLADFLRHSSNNLGPILPPTNVGSNT[Hyp]-NH2; disulfide 2-7 (inferred)) are “Clear”, “Clear”, 95.59% and 0.01 nM.
For the compound `CC[C@H](C)[C@H](NC(=O)[C@@H]1CCCN1C(=O)[C@H](CCCCNC(=O)CC[C@H](NC(=O)CCCCCCCCCCCCCCCCCCC(=O)O)C(=O)O)NC(=O)[C@H](CC(C)C)NC(=O)[C@H](CC(N)=O)NC(=O)[C@H](CC(N)=O)NC(=O)[C@H](CO)NC(=O)[C@H](CO)NC(=O)[C@H](Cc1c[nH]cn1)NC(=O)[C@H](CCCNC(=N)N)NC(=O)[C@H](CC(C)C)NC(=O)[C@H](Cc1ccccc1)NC(=O)[C@H](CCN)NC(=O)[C@H](C)NC(=O)[C@H](CC(C)C)NC(=O)[C@H](CCCNC(=N)N)NC(=O)[C@H](CCC(N)=O)NC(=O)[C@@H](NC(=O)[C@H](C)NC(=O)[C@@H]1CSSC[C@H](NC(=O)[C@@H](N)CCCNC(=N)N)C(=O)N[C@@H](CC(N)=O)C(=O)N[C@@H]([C@@H](C)O)C(=O)N[C@@H](C)C(=O)N[C@@H]([C@@H](C)O)C(=O)N1)[C@@H](C)O)C(=O)N[C@@H](CC(C)C)C(=O)N1CCC[C@H]1C(=O)N1CCC[C@H]1C(=O)N[C@H](C(=O)N[C@@H](CC(N)=O)C(=O)N[C@H](C(=O)NCC(=O)N[C@@H](CO)C(=O)N[C@@H](CC(N)=O)C(=O)N[C@H](C(=O)N1CCC[C@H]1C(N)=O)[C@@H](C)O)C(C)C)[C@@H](C)O` [PD044] (H-RCNTATCATQRLA[Dab]FLRHSSNNLK([γGlu-C20 diacid])PILPPTNVGSNTP-NH2; disulfide 2-7 (inferred)), in series [1], the Dissolution property entry is listed as “Clear”, the Freeze storage property entry is reported as “Clear” and the Freeze storage yield was found to be 84.90%. Further, the EC50 at human amylin receptor came out at 2.62 nM.
